Laboratory results as given in US20250214991A1 (Oncopia Therapeutics, Inc. d/b/a/ SK Life Science Labs, priority 2022, published 2025).

Legend:
[1] = biological target: CRBN/DDB1 (Homo sapiens (Human), UniProt Q96SW2); assay: IC50 measurements for binding to CRBN/DDB1 (HTRF); settings: His tagged CRBN+DDB, Cy5-labeled Thalidomide probe, one hour
Procedure: In vitro Assay: IC50 Measurements for binding to CRBN/DDB1 (Table E1)
The binding potency was determined using HTRF assay technology (Perkin Elmer). Compounds were serially diluted in DMSO and 0.2 μL volume was transferred to white 384-well plate. The reaction was conducted in total volume of 20 μL with addition of 2 nM His tagged CRBN+DDB−DLS7+CXU4 (Wuxi, catalogue #RP210521GA) to compounds followed by addition of 60 nM Fluorescent probe Cy5-labeled Thalidomide (Tenova Pharma, catalogue #T52461), and 0.4 nM of MAb Anti-6HIS Tb cryptate Gold (Cisbio, catalogue #61HI2TLA in the assay buffer (50 mM HEPES pH 7.5, 1 mM TCEP, 0.01% Brij-35, 50 mM NaCl, and 0.1% BSA). After one hour incubation at room temperature, the HTRF signals were read on Envision reader (Perkin Elemer). Data was analyzed using XLfit using four parameters dose response curve to determine IC50s. A: IC50<0.1 μM; B: 0.1 μM<IC50<[…]; C: 0.5 μM<IC50<1 μM; D: 1 μM<IC50<5 μM; E: 5 μM<IC50<10 μM

[2] = biological target: IKZF2 (Homo sapiens (Human), UniProt Q96SW2+Q9UKS7); assay: In vitro IKZF2 HiBit Assay (HEK293T Flp-in-HiBiT cells); format: cell-based; settings: HEK293T Flp-in-HiBiT cells, 6 hrs incubation; for DC50: read-out: IKZF2 HiBit DC50; for Dmax: HEK-293T, read-out: IKZF2 HiBit Dmax (%)
IKZF2, sequence (Q9UKS7 whole entry): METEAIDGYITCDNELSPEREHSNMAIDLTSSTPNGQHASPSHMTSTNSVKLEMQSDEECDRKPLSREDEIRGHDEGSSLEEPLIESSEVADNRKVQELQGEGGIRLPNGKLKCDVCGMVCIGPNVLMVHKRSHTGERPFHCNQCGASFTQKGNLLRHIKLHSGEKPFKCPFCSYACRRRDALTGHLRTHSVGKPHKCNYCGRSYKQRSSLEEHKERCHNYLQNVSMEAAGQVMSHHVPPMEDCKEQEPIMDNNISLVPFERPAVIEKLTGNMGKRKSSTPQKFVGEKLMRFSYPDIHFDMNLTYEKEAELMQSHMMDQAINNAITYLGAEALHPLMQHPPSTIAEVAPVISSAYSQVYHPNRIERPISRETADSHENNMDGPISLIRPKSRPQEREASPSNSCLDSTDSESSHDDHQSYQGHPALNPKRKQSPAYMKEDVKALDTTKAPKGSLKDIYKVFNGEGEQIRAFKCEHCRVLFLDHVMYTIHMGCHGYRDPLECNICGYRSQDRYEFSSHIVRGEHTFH
IKZF2, sequence (Q96SW2 whole entry): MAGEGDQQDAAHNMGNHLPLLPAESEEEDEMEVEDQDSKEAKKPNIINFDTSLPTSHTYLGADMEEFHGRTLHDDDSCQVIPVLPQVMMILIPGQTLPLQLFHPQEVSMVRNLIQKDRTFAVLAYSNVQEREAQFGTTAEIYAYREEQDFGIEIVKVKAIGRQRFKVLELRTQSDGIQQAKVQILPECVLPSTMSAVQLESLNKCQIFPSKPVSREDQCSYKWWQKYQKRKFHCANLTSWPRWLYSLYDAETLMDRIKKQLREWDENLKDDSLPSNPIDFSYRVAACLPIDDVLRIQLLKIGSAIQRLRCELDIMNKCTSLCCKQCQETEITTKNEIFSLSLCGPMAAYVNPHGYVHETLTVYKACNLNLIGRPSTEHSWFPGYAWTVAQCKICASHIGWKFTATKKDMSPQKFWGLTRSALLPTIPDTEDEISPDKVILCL
IKZF2, sequence (Q16531 2-1140 partner): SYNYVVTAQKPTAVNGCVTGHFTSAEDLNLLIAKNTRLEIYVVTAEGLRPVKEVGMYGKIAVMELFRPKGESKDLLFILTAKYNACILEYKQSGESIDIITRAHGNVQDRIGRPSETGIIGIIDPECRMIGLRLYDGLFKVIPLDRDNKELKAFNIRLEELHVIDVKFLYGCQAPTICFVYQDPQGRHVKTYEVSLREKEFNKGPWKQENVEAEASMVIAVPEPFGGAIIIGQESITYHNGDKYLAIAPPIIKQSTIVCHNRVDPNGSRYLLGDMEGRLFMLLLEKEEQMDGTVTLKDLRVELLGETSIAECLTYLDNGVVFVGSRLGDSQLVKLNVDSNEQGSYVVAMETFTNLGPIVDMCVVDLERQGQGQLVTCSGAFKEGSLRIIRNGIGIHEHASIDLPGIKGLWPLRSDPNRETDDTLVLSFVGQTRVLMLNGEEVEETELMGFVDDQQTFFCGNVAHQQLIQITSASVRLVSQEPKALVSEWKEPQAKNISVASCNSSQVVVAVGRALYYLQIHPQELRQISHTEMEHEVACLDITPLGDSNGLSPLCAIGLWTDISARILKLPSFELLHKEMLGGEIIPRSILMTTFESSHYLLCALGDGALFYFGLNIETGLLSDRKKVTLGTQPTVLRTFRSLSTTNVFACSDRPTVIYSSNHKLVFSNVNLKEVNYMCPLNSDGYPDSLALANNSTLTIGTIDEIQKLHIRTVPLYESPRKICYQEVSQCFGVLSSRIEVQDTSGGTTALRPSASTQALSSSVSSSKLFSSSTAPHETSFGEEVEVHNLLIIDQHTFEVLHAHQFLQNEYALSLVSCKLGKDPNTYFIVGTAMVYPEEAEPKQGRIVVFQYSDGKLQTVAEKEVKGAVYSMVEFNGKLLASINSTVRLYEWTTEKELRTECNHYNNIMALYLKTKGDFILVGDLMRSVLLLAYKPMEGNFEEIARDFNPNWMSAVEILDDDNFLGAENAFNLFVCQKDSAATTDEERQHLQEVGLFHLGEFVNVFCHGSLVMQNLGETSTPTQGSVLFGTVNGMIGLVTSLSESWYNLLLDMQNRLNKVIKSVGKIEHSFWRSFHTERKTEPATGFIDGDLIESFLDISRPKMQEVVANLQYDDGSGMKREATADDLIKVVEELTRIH
Summary of the method: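 HEK293T Flp-in cells carrying an endogenous N-terminal HiBiT tag on IKZF2 were exposed to compound for 6 h at 0.1% DMSO. The dilution series was 11 doses at 3-fold, diluted from 1 mM. Nano-Glo HiBiT lytic luminescence, normalized to DMSO, gave DC50 for 50% degradation and Dmax across the concentration range, both reported in letter bins.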

[3] = biological target: IKZF1 (Homo sapiens (Human), UniProt Q13422+Q96SW2); assay: In vitro IKZF1 HiBit Assay (HEK293T Flp-in-HiBiT-IKZF1 stable cell line); format: cell-based; settings: HEK293T Flp-in-HiBiT-IKZF1 stable cell line, 6 hrs incubation; for DC50: read-out: IKZF1 HiBit DC50; for Dmax: HEK-293T, read-out: IKZF1 HiBit Dmax (%)
IKZF1, sequence (Q13422 whole entry): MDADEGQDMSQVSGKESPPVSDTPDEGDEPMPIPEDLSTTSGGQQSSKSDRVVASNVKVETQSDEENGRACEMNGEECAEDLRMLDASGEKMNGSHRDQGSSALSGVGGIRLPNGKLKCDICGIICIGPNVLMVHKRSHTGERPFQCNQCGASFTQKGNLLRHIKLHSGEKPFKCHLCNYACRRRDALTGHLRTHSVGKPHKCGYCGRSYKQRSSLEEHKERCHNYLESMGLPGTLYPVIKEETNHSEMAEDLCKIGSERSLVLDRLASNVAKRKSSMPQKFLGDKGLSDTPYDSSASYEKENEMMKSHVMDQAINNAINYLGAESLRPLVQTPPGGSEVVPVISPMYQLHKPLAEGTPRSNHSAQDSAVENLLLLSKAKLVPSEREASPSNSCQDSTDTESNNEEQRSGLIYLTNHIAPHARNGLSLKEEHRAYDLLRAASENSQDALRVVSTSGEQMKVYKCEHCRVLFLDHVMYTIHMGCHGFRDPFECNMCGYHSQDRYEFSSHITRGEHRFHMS
IKZF1, sequence (Q96SW2 whole entry): as the sequence (Q96SW2 whole entry) above
IKZF1, sequence (Q16531 2-1140 partner): as the sequence (Q16531 2-1140 partner) above
Summary of the method: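 HEK293T Flp-in cells carrying N-terminal HiBiT-tagged IKZF1 were exposed to compound (0.1% DMSO) for 6 h at 3000 cells/well. HiBiT luminescence was read after lytic LgBiT detection. DC50 and Dmax were taken from DMSO-normalized dose-response curves.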

CRBN/DDB1, sequence (Q96SW2 whole entry, species assumed): as the sequence (Q96SW2 whole entry) above
CRBN/DDB1, sequence (Q16531 whole entry partner, species assumed): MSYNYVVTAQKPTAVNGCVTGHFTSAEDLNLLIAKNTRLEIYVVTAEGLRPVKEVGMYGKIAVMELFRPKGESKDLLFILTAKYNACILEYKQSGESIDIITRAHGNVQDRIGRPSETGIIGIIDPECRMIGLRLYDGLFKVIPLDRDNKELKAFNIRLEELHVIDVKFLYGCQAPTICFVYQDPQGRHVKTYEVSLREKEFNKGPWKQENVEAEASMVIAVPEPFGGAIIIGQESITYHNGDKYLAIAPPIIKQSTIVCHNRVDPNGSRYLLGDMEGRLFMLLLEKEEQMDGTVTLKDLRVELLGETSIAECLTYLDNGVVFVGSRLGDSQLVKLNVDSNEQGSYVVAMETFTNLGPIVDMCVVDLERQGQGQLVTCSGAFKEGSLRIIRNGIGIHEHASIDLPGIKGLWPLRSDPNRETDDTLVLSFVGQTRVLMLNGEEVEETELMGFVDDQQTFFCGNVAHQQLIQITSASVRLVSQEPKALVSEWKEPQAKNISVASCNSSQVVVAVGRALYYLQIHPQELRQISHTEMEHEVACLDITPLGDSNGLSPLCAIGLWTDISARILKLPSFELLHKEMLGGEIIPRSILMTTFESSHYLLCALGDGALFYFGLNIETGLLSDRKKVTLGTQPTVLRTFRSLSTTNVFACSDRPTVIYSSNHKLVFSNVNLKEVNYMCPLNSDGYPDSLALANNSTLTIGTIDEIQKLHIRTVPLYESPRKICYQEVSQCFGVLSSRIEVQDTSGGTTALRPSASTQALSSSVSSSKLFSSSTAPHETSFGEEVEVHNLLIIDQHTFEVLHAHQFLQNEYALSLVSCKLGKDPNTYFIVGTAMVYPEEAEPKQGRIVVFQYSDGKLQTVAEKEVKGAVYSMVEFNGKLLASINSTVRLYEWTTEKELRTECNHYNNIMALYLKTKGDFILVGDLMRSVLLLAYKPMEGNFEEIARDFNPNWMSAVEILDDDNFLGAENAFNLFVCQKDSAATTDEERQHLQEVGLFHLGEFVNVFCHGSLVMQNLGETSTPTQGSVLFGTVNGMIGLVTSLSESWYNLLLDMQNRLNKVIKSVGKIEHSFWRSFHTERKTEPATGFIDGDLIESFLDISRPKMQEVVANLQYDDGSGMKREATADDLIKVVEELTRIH

| SMILES | IC50 [1] [nM] | DC50 [2] [nM] | Dmax [2] [%] | DC50 [3] [nM] | Dmax [3] [%] |
| --- | --- | --- | --- | --- | --- |
| CN(C)C(=O)C1CCN(Cc2cc(-c3ccc4c(c3)CN(C3CCC(=O)NC3=O)C4=O)nc3c2ccn3C)CC1 (centres unmarked) [Example 92, 1-((6-(2-(2,6-dioxopiperidin-3-yl)-1-oxoisoindolin-5-yl)-1-methyl-1H-pyrrolo[2,3-b]pyridin-4-yl)methyl)-N,N-dimethylpiperidine-4-carboxamide] | < 100 | 1 to 10 | > 80 | > 10000 | < 20 |
| COC1CCN(Cc2cc(-c3ccc4c(c3)CN(C3CCC(=O)NC3=O)C4=O)nc3c2ccn3C)C1 (centres unmarked) [Example 93, 3-(5-(4-((3-methoxypyrrolidin-1-yl)methyl)-1-methyl-1H-pyrrolo[2,3-b]pyridin-6-yl)-1-oxoisoindolin-2-yl) piperidine-2,6-dione] | 100 to 500 | < 1 | > 80 | 10 to 100 | 20 to 40 |
| Cn1ccc2c(CN3CCC(n4cccn4)CC3)cc(-c3ccc4c(c3)CN(C3CCC(=O)NC3=O)C4=O)nc21 (centres unmarked) [Example 94, 3-(5-(4-((4-(1H-pyrazol-1-yl)piperidin-1-yl)methyl)-1-methyl-1H-pyrrolo[2,3-b]pyridin-6-yl)-1-oxoisoindolin-2-yl) piperidine-2,6-dione] | < 100 | 1 to 10 | 60 to 80 | > 10000 | < 20 |
| Cn1ccc2c(CN3CCN4CCCC4C3)cc(-c3ccc4c(c3)CN(C3CCC(=O)NC3=O)C4=O)nc21 (centres unmarked) [Example 95, 3-(5-(4-((hexahydropyrrolo[1,2-a]pyrazin-2 (1H)-yl)methyl)-1-methyl-1H-pyrrolo[2,3-b]pyridin-6-yl)-1-oxoisoindolin-2-yl) piperidine-2,6-dione] | 100 to 500 | 1 to 10 | 60 to 80 | > 10000 | < 20 |
| Cn1ccc2c(CN3CCC(CO)C3)cc(-c3ccc4c(c3)CN(C3CCC(=O)NC3=O)C4=O)nc21 (centres unmarked) [Example 96, 3-(5-(4-((3-(hydroxymethyl)pyrrolidin-1-yl)methyl)-1-methyl-1H-pyrrolo[2,3-b]pyridin-6-yl)-1-oxoisoindolin-2-yl) piperidine-2,6-dione] | 100 to 500 | 1 to 10 | > 80 | 10 to 100 | 20 to 40 |
| Cn1ccc2c(Cn3cnc4ccccc43)cc(-c3ccc4c(c3)CN(C3CCC(=O)NC3=O)C4=O)nc21 (centres unmarked) [Example 97, 3-(5-(4-((1H-benzo[d]imidazol-1-yl)methyl)-1-methyl-1H-pyrrolo[2,3-b]pyridin-6-yl)-1-oxoisoindolin-2-yl) piperidine-2,6-dione] | < 100 | 10 to 100 | 40 to 60 | > 10000 | < 20 |
| CCn1ccc2c(CN3CCC3)cc(-c3ccc4c(c3)CN(C3CCC(=O)NC3=O)C4=O)nc21 (centres unmarked) [Example 98, 3-(5-(4-(azetidin-1-ylmethyl)-1-ethyl-1H-pyrrolo[2,3-b]pyridin-6-yl)-1-oxoisoindolin-2-yl) piperidine-2,6-dione] | < 100 | 1 to 10 | > 80 | > 10000 | < 20 |
| Cn1ccnc1N1CCN(Cc2cc(-c3ccc4c(c3)CN(C3CCC(=O)NC3=O)C4=O)nc3c2ccn3C)CC1 (centres unmarked) [Example 99, 3-(5-(1-methyl-4-((4-(1-methyl-1H-imidazol-2-yl)piperazin-1-yl)methyl)-1H-pyrrolo[2,3-b]pyridin-6-yl)-1-oxoisoindolin-2-yl) piperidine-2,6-dione] | 100 to 500 | 10 to 100 | 40 to 60 | > 10000 | < 20 |
| Cn1ccc2c(CN3CC4(CCOCC4)C3)cc(-c3ccc4c(c3)CN(C3CCC(=O)NC3=O)C4=O)nc21 (centres unmarked) [Example 100, 3-(5-(4-((7-oxa-2-azaspiro[3.5]nonan-2-yl)methyl)-1-methyl-1H-pyrrolo[2,3-b]pyridin-6-yl)-1-oxoisoindolin-2-yl) piperidine-2,6-dione] | 100 to 500 | < 1 | > 80 | 10 to 100 | 20 to 40 |
| Cn1ccc2c(CN3CCCC3CO)cc(-c3ccc4c(c3)CN(C3CCC(=O)NC3=O)C4=O)nc21 (centres unmarked) [Example 101, 3-(5-(4-((2-(hydroxymethyl)pyrrolidin-1-yl)methyl)-1-methyl-1H-pyrrolo[2,3-b]pyridin-6-yl)-1-oxoisoindolin-2-yl) piperidine-2,6-dione] | 100 to 500 | 1 to 10 | > 80 | > 10000 | < 20 |
| COC1CCN(Cc2cc(-c3ccc4c(c3)CN(C3CCC(=O)NC3=O)C4=O)nc3c2ccn3C)CC1 (centres unmarked) [Example 102, 3-(5-(4-((4-methoxypiperidin-1-yl)methyl)-1-methyl-1H-pyrrolo[2,3-b]pyridin-6-yl)-1-oxoisoindolin-2-yl) piperidine-2,6-dione] | 100 to 500 | < 1 | > 80 | 10 to 100 | 20 to 40 |
| Cn1ccc2c(CN3CCC4(CCCC4)CC3)cc(-c3ccc4c(c3)CN(C3CCC(=O)NC3=O)C4=O)nc21 (centres unmarked) [Example 103, 3-(5-(4-((8-azaspiro[4.5]decan-8-yl)methyl)-1-methyl-1H-pyrrolo[2,3-b]pyridin-6-yl)-1-oxoisoindolin-2-yl) piperidine-2,6-dio] | 100 to 500 | 1 to 10 | > 80 | 10 to 100 | 20 to 40 |
| O=C1CCC(N2Cc3cc(-c4cc(CN5CCCC5)c5ncccc5n4)ccc3C2=O)C(=O)N1 (centres unmarked) [Example 104, 3-(1-oxo-5-(4-(pyrrolidin-1-ylmethyl)-1,5-naphthyridin-2-yl)isoindolin-2-yl) piperidine-2,6-dione] | 500 to 1000 | 1 to 10 | > 80 | > 10000 | 20 to 40 |
| COCC1CCCN1Cc1cc(-c2ccc3c(c2)CN(C2CCC(=O)NC2=O)C3=O)nc2c1ccn2C (centres unmarked) [Example 106, 3-(5-(4-((2-(methoxymethyl)pyrrolidin-1-yl)methyl)-1-methyl-1H-pyrrolo[2,3-b]pyridin-6-yl)-1-oxoisoindolin-2-yl) piperidine-2,6-dione] | 100 to 500 | 1 to 10 | > 80 | > 10000 | < 20 |
| Cn1ccc2c(CN3CCn4nccc4C3)cc(-c3ccc4c(c3)CN(C3CCC(=O)NC3=O)C4=O)nc21 (centres unmarked) [Example 107, 3-(5-(4-((6,7-dihydropyrazolo[1,5-a]pyrazin-5 (4H)-yl)methyl)-1-methyl-1H-pyrrolo[2,3-b]pyridin-6-yl)-1-oxoisoindolin-2-yl) piperidine-2,6-dione] | 100 to 500 | 10 to 100 | 40 to 60 | > 10000 | < 20 |
| C[C@@H]1CC[C@@H](C)N1Cc1cc(-c2ccc3c(c2)CN(C2CCC(=O)NC2=O)C3=O)nc2c1ccn2C (stereo partly drawn) [Example 108, 3-(5-(4-(((2R,5R)-2,5-dimethylpyrrolidin-1-yl)methyl)-1-methyl-1H-pyrrolo[2,3-b]pyridin-6-yl)-1-oxoisoindolin-2-yl) piperidine-2,6-dione] | 500 to 1000 | 1 to 10 | 60 to 80 | > 10000 | < 20 |
| COCC1CCN(Cc2cc(-c3ccc4c(c3)CN(C3CCC(=O)NC3=O)C4=O)nc3c2ccn3C)C1 (centres unmarked) [Example 109, 3-(5-(4-((3-(methoxymethyl)pyrrolidin-1-yl)methyl)-1-methyl-1H-pyrrolo[2,3-b]pyridin-6-yl)-1-oxoisoindolin-2-yl) piperidine-2,6-dione] | 100 to 500 | < 1 | > 80 | 1 to 10 | 20 to 40 |
| Cn1ccc2nc(-c3ccc4c(c3)CN(C3CCC(=O)NC3=O)C4=O)cc(CN3CCC3)c21 (centres unmarked) [Example 110, 3-(5-(7-(azetidin-1-ylmethyl)-1-methyl-1H-pyrrolo[3,2-b]pyridin-5-yl)-1-oxoisoindolin-2-yl) piperidine-2,6-dione] | 500 to 1000 | 1 to 10 | > 80 | > 10000 | < 20 |
| O=C1CCC(N2Cc3cc(-c4cc(CN5CC(O)C5)c5cc[nH]c5n4)ccc3C2=O)C(=O)N1 (centres unmarked) [Example 111, 3-(5-(4-((3-hydroxyazetidin-1-yl)methyl)-1H-pyrrolo[2,3-b]pyridin-6-yl)-1-oxoisoindolin-2-yl) piperidine-2,6-dione] | 100 to 500 | 10 to 100 | 60 to 80 | > 10000 | < 20 |
